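All cell lines were grown in 96-well plates and treated with compound for 48 hours. GI50 is the concentration that inhibits growth by half.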 Activity calls are given as the source filed them. Cut-off read from the data, not from the text of the source: active = GI50 up to about 1.1 µM and inactive = higher.
Assays:
Experiment in all cases: DTP human tumour cell line panel, 48 h
786-0 = test system: 786-0
CAKI-1 = test system: CAKI-1
DU-145 = test system: DU-145
EKVX = test system: EKVX
HCC 2998 = test system: HCC 2998
HCT-116 = test system: HCT-116
HOP-62 = test system: HOP-62
M14 = test system: M14
MDA-MB-435 = test system: MDA-MB-435
Malme-3M = test system: Malme-3M
NCI-H460 = test system: NCI-H460
NCI-H522 = test system: NCI-H522
OVCAR-4 = test system: OVCAR-4
OVCAR-5 = test system: OVCAR-5
PC-3 = test system: PC-3
RXF 393 = test system: RXF 393
TK-10 = test system: TK-10
U-251 = test system: U-251
UACC-257 = test system: UACC-257
UACC-62 = test system: UACC-62

SMILES: C[C@]12CC[C@H](O)C[C@@H]1CC[C@@H]1[C@@H]2CC[C@]2(C)[C@@H](C3=CC(=O)OC3)CC[C@]12O
- GI50 (786-0): 1.95 µM (inactive)
- GI50 (CAKI-1): 1.81 µM (inactive)
- GI50 (DU-145): 1.49 µM (inactive)
- GI50 (EKVX): 2.38 µM (inactive)
- GI50 (HCC 2998): 3.05 µM (inactive)
- GI50 (HCT-116): 1.73 µM (inactive)
- GI50 (HOP-62): 1.6 µM (inactive)
- GI50 (M14): 3.45 µM (inactive)
- GI50 (MDA-MB-435): 3.03 µM (inactive)
- GI50 (Malme-3M): 2.16 µM (inactive)
- GI50 (NCI-H460): 0.673 µM (active)
- GI50 (NCI-H522): 0.719 µM (active)
- GI50 (OVCAR-4): 2.08 µM (inactive)
- GI50 (OVCAR-5): 4.25 µM (inactive)
- GI50 (PC-3): 2.58 µM (inactive)
- GI50 (RXF 393): 0.736 µM (active)
- GI50 (TK-10): 4 µM (inactive)
- GI50 (U-251): 3.73 µM (inactive)
- GI50 (UACC-257): 4.03 µM (inactive)
- GI50 (UACC-62): 3.55 µM (inactive)

SMILES: OC(Cc1cccnc1)(c1ccccc1)c1ccccc1
- GI50 (786-0): > 100 µM (inactive)
- GI50 (CAKI-1): > 100 µM (inactive)
- GI50 (DU-145): > 100 µM (inactive)
- GI50 (EKVX): 17.8 µM (inactive)
- GI50 (HCC 2998): > 100 µM (inactive)
- GI50 (HCT-116): > 100 µM (inactive)
- GI50 (HOP-62): > 100 µM (inactive)
- GI50 (M14): 68.1 µM (inactive)
- GI50 (MDA-MB-435): 47 µM (inactive)
- GI50 (Malme-3M): > 100 µM (inactive)
- GI50 (NCI-H460): > 100 µM (inactive)
- GI50 (NCI-H522): 47 µM (inactive)
- GI50 (OVCAR-4): > 100 µM (inactive)
- GI50 (OVCAR-5): > 100 µM (inactive)
- GI50 (PC-3): > 100 µM (inactive)
- GI50 (RXF 393): > 100 µM (inactive)
- GI50 (TK-10): > 100 µM (inactive)
- GI50 (U-251): > 100 µM (inactive)
- GI50 (UACC-257): 41.3 µM (inactive)
- GI50 (UACC-62): 91.6 µM (inactive)

SMILES: CSc1nnnc2ccccc12
- GI50 (786-0): > 100 µM (inactive)
- GI50 (CAKI-1): > 100 µM (inactive)
- GI50 (DU-145): > 100 µM (inactive)
- GI50 (EKVX): > 100 µM (inactive)
- GI50 (HCC 2998): > 100 µM (inactive)
- GI50 (HCT-116): > 100 µM (inactive)
- GI50 (HOP-62): > 100 µM (inactive)
- GI50 (M14): > 100 µM (inactive)
- GI50 (MDA-MB-435): > 100 µM (inactive)
- GI50 (Malme-3M): > 100 µM (inactive)
- GI50 (NCI-H460): > 100 µM (inactive)
- GI50 (NCI-H522): > 100 µM (inactive)
- GI50 (OVCAR-4): > 100 µM (inactive)
- GI50 (OVCAR-5): > 100 µM (inactive)
- GI50 (PC-3): > 100 µM (inactive)
- GI50 (RXF 393): > 100 µM (inactive)
- GI50 (TK-10): > 100 µM (inactive)
- GI50 (U-251): > 100 µM (inactive)
- GI50 (UACC-257): > 100 µM (inactive)
- GI50 (UACC-62): > 100 µM (inactive)

SMILES: O=[N+]([O-])c1ccc2nc(-c3ccccn3)c(-c3ccccn3)nc2c1
- GI50 (786-0): > 100 µM (inactive)
- GI50 (CAKI-1): > 100 µM (inactive)
- GI50 (DU-145): > 100 µM (inactive)
- GI50 (EKVX): 71 µM (inactive)
- GI50 (HCC 2998): > 100 µM (inactive)
- GI50 (HCT-116): 38.9 µM (inactive)
- GI50 (HOP-62): 35.1 µM (inactive)
- GI50 (M14): 66.7 µM (inactive)
- GI50 (MDA-MB-435): > 100 µM (inactive)
- GI50 (Malme-3M): 61.2 µM (inactive)
- GI50 (NCI-H460): 45.7 µM (inactive)
- GI50 (NCI-H522): 44.9 µM (inactive)
- GI50 (OVCAR-4): > 100 µM (inactive)
- GI50 (OVCAR-5): > 100 µM (inactive)
- GI50 (PC-3): 38.5 µM (inactive)
- GI50 (RXF 393): 86.5 µM (inactive)
- GI50 (TK-10): > 100 µM (inactive)
- GI50 (U-251): > 100 µM (inactive)
- GI50 (UACC-257): 98.4 µM (inactive)
- GI50 (UACC-62): 44.5 µM (inactive)

SMILES: N#Cc1c(N)n(-c2nc3ccccc3s2)c(=O)c2cc([N+](=O)[O-])ccc12
- GI50 (786-0): 21.7 µM (inactive)
- GI50 (CAKI-1): 20.9 µM (inactive)
- GI50 (DU-145): 25.6 µM (inactive)
- GI50 (EKVX): 23.3 µM (inactive)
- GI50 (HCC 2998): 9.44 µM (inactive)
- GI50 (HCT-116): 4.44 µM (inactive)
- GI50 (HOP-62): 7.08 µM (inactive)
- GI50 (M14): 23.2 µM (inactive)
- GI50 (MDA-MB-435): 25 µM (inactive)
- GI50 (Malme-3M): 18.7 µM (inactive)
- GI50 (NCI-H460): 6.32 µM (inactive)
- GI50 (NCI-H522): 6.49 µM (inactive)
- GI50 (OVCAR-4): 24.3 µM (inactive)
- GI50 (OVCAR-5): 24.8 µM (inactive)
- GI50 (PC-3): 5.51 µM (inactive)
- GI50 (RXF 393): 7.62 µM (inactive)
- GI50 (TK-10): 23.6 µM (inactive)
- GI50 (U-251): 19.9 µM (inactive)
- GI50 (UACC-257): 23.4 µM (inactive)
- GI50 (UACC-62): 21.3 µM (inactive)
